Laboratory results reported in US20240246908A1 (ORION CORPORATION, priority 2021, published 2024).

These compounds were tested on YAP-TEAD (assay: TEAD inhibition, Hippo Pathway TEAD Reporter MCF-7 luciferase assay). Conditions: Homo sapiens, MCF7, 24 h, Hippo Pathway TEAD Reporter MCF-7 cells, luciferase activity after 24 h; read-out: IC50 of the test compounds on YAP-TEAD inhibition (Group).
Type: cell-based
In short: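 MCF-7 cells carrying a TEAD-responsive firefly luciferase reporter, with nuclear YAP1 driving constitutive expression, were treated the day after plating with compounds (11 concentrations, 4 replicates; 0.1% DMSO control). After 24 h, luciferase was read by ONE-Glo luminescence and IC50 determined.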
In the case of `COc1ccc(Oc2cc(C(F)(F)F)ccn2)cc1NC(=O)[C@@H]1CCC(=O)N1C` [Compound 394, (S)—N-(2-Methoxy-5-((4-(trifluoromethyl)pyridin-2-yl)oxy)phenyl)-1-methyl-5-oxopyrrolidine-2-carboxamide], the IC50 is reported as 301 to 2000 nM. Work on `COc1ccc(Oc2ccc(C(F)(F)F)c(F)c2)cc1NC(=O)C1CCC(=O)N1C` (stereo not drawn) [Compound 395] yielded an IC50 of under 50 nM. With `COc1ccc(Oc2ccc(C#N)c(C(F)(F)F)c2)cc1NC(=O)C1CCC(=O)N1C` (stereo not drawn) [Compound 396, N-(5-(4-Cyano-3-(trifluoromethyl)phenoxy)-2-methoxyphenyl)-1-methyl-5-oxopyrrolidine-2-carboxamide] the IC50 was 50 to 300 nM. With `COc1ccc(Oc2ccc(F)c(C#N)c2)cc1NC(=O)C1CCC(=O)N1C` (stereo not drawn) [Compound 397, N-(5-(3-Cyano-4-fluorophenoxy)-2-methoxyphenyl)-1-methyl-5-oxopyrrolidine-2-carboxamide] the IC50 was 301 to 2000 nM. Compound `COc1ccc(Oc2ccc(C(F)(F)F)cc2F)cc1NC(=O)[C@@H]1CCC(=O)N1C` [Compound 398, (S)—N-(5-(2-Fluoro-4-(trifluoromethyl)phenoxy)-2-methoxyphenyl)-1-methyl-5-oxopyrrolidine-2-carboxamide] has an IC50 of under 50 nM. `COc1ccc(Oc2cnc(C(F)(F)F)c(F)c2)cc1NC(=O)C1CCC(=O)N1C` (stereo not drawn) [Compound 399] was tested, and the IC50 was under 50 nM. Compound `COc1ccc(Oc2ccc(C(F)(F)F)c(F)n2)cc1NC(=O)C1CCC(=O)N1C` (stereo not drawn) [Compound 400, N-(5-((6-Fluoro-5-(trifluoromethyl)pyridin-2-yl)oxy)-2-methoxyphenyl)-1-methyl-5-oxopyrrolidine-2-carboxamide] has an IC50 of under 50 nM. `COc1ccc(Oc2ccc(C(F)(F)F)c(F)n2)cc1NC(=O)[C@@H]1CCC(=O)N1C` [Compound 401, (S)—N-(5-((6-Fluoro-5-(trifluoromethyl)pyridin-2-yl)oxy)-2-methoxyphenyl)-1-methyl-5-oxopyrrolidine-2-carboxamide] gave an IC50 of under 50 nM. Compound `COc1ccc(Oc2ccc(C(F)(F)F)c(F)n2)cc1NC(=O)[C@H]1CCC(=O)N1C` [Compound 402, (R)—N-(5-((6-Fluoro-5-(trifluoromethyl)pyridin-2-yl)oxy)-2-methoxyphenyl)-1-methyl-5-oxopyrrolidine-2-carboxamide] has an IC50 of under 50 nM. In the case of `COc1ccc(Oc2ccc(C(F)(F)F)cn2)cc1NC(=O)[C@@H]1CCC(=O)N1C` [Compound 403, (S)—N-(2-Methoxy-5-((5-(trifluoromethyl)pyridin-2-yl)oxy)phenyl)-1-methyl-5-oxopyrrolidine-2-carboxamide], the IC50 is reported as under 50 nM. In the case of `COc1ccc(/C=C/C2CCC(F)(F)CC2)cc1NC(=O)C1CNC(=O)N1` (stereo not drawn) [Compound 404, (E)-N-(5-(2-(4,4-Difluorocyclohexyl)vinyl)-2-methoxyphenyl)-2-oxo-imidazolidine-4-carboxamide], the IC50 is reported as 50 to 300 nM. In the case of `CN1C(=O)CC[C@@H]1C(=O)Nc1cc(/C=C/C2CCC(F)(F)CC2)cc2c1OCC2` [Compound 405, (R,E)-N-(5-(2-(4,4-Difluorocyclohexyl)vinyl)-2,3-dihydrobenzofuran-7-yl)-1-methyl-5-oxopyrrolidine-2-carboxamide], the IC50 is reported as under 50 nM. `CN1C(=O)CC[C@H]1C(=O)Nc1cc(/C=C/C2CCC(F)(F)CC2)cc2c1OCC2` [Compound 406, (S,E)-N-(5-(2-(4,4-Difluorocyclohexyl)vinyl)-2,3-dihydrobenzofuran-7-yl)-1-methyl-5-oxopyrrolidine-2-carboxamide] gave an IC50 of under 50 nM. For `CN1C(=O)NC[C@H]1C(=O)Nc1cc(/C=C/C2CCC(F)(F)CC2)cc2c1OCC2` [Compound 407, (S,E)-N-(5-(2-(4,4-Difluorocyclohexyl)vinyl)-2,3-dihydrobenzofuran-7-yl)-3-methyl-2-oxoimidazolidine-4-carboxamide], the IC50 was under 50 nM. `COc1ccc(/C=C/C2CCC(F)(F)CC2)cc1NC(=O)C1CN(C)C(=O)N1C` (stereo not drawn) [Compound 408, (E)-N-(5-(2-(4,4-Difluorocyclohexyl)vinyl)-2-methoxyphenyl)-1,3-dimethyl-2-oxoimidazolidine-4-carboxamide] showed an IC50 of 50 to 300 nM. In the case of `CN1C(=O)NC[C@H]1C(=O)Nc1cc(/C=C/C2CCC(F)(F)CC2)cc2c1OCO2` [Compound 409], the IC50 is reported as under 50 nM. For `COc1cc(Oc2ccc(O)c(NC(=O)C3CCC(=O)N3C)c2)ccc1C(F)(F)F` (stereo not drawn) [Compound 410, N-(2-Hydroxy-5-(3-methoxy-4-(trifluoromethyl)phenoxy)phenyl)-1-methyl-5-oxopyrrolidine-2-carboxamide], the IC50 was 301 to 2000 nM. `COc1ccc(Oc2ccc(C(F)(F)F)cc2O)cc1NC(=O)C1CCC(=O)N1C` (stereo not drawn) [Compound 411, N-(5-(2-Hydroxy-4-(trifluoromethyl)phenoxy)-2-methoxyphenyl)-1-methyl-5-oxopyrrolidine-2-carboxamide] gave an IC50 of 301 to 2000 nM. In the case of `COc1ccc(Oc2ccc(C(F)(F)F)cc2)cc1NC(=O)C1CCN(C(C)=O)C1` (stereo not drawn) [Compound 412, 1-Acetyl-N-(2-methoxy-5-(4-(trifluoromethyl)phenoxy)phenyl)-pyrrolidine-3-carboxamide], the IC50 is reported as 301 to 2000 nM. Work on `COc1ccc(Oc2cccc(F)c2)cc1NC(=O)C1CCN(C(C)=O)C1` (stereo not drawn) [Compound 413, 1-Acetyl-N-(5-(3-fluorophenoxy)-2-methoxyphenyl)pyrrolidine-3-carboxamide] yielded an IC50 of 301 to 2000 nM. With `COc1ccc(Oc2ccc(C(F)(F)F)cc2)cc1N(C)C(=O)[C@@H]1CCC(=O)N1C` [Compound 417, (S)—N-(2-Methoxy-5-(4-(trifluoromethyl)phenoxy)phenyl)-N,1-dimethyl-5-oxopyrrolidine-2-carboxamide] the IC50 was 50 to 300 nM.
